Measured values reported in the NIST ThermoML archive (doi:10.1021/je100472t).
± gives the expanded uncertainty stated by the source.

Settings: 101.33 kPa, Liquid; for speed of sound: Pulse-echo method; for mass density: Vibrating tube method

CCC(C)=O [butanone]
speed of sound (293.15 K): 1212 ± 0.8 m/s | mass density (293.15 K): 805.08 ± 0.14 kg/m3 | speed of sound (298.15 K): 1190.8 ± 0.8 m/s | mass density (298.15 K): 799.861 ± 0.14 kg/m3 | speed of sound (303.15 K): 1170.6 ± 0.8 m/s | mass density (303.15 K): 794.636 ± 0.14 kg/m3

c1ccncc1 [pyridine]
speed of sound (293.15 K): 1436.6 ± 0.9 m/s | mass density (293.15 K): 983.163 ± 0.087 kg/m3 | speed of sound (298.15 K): 1416.2 ± 0.9 m/s | mass density (298.15 K): 978.138 ± 0.089 kg/m3 | speed of sound (303.15 K): 1396.9 ± 0.9 m/s | mass density (303.15 K): 973.148 ± 0.09 kg/m3

CNc1ccccc1 [N-methylaniline]
speed of sound (293.15 K): 1582.5 ± 2.1 m/s | mass density (293.15 K): 986.295 ± 0.82 kg/m3 | speed of sound (298.15 K): 1563.9 ± 2.1 m/s | mass density (298.15 K): 982.278 ± 0.82 kg/m3 | speed of sound (303.15 K): 1546 ± 2.1 m/s | mass density (303.15 K): 978.284 ± 0.81 kg/m3

Nc1ccccc1 [aniline]
speed of sound (293.15 K): 1657 ± 0.94 m/s | mass density (293.15 K): 1021.84 ± 0.092 kg/m3 | speed of sound (298.15 K): 1637.8 ± 0.9 m/s | mass density (298.15 K): 1017.51 ± 0.09 kg/m3 | speed of sound (303.15 K): 1619.3 ± 0.9 m/s | mass density (303.15 K): 1013.23 ± 0.088 kg/m3
